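Each compound was tested at five concentrations against cells in 96-well plates for 48 hours. GI50: concentration for 50% inhibition of growth. TGI: concentration producing complete growth inhibition.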
System: MDA-MB-468 breast
Experiment: NCI-60 cell line screen, 48 h

SMILES	GI50 [µM]	TGI [µM]
NC(=O)c1sc(-n2cnc3cc(C(F)(F)F)ccc32)cc1OCc1ccccc1Br	> 11.5	> 23.4
CC(=O)O[C@H]1C[C@@H]2OC3C=C(C)CCC3(C)[C@@]1(C)[C@@]21CO1 (stereo partly specified)	0.284	1.57
Cc1cc(O)c(C2=NN(c3ccc(S(N)(=O)=O)cc3)C(/C=C/c3ccccc3)C2)cc1Cl (stereo unspecified)	3.94	13.8
COc1ccc(-c2c3c(nc4n[nH]c(-c5ccc(Cl)cc5)c24)-c2ccccc2C(=O)C3=O)cc1	1.65	3.47
COc1ccc(NC2=C(Cl)C(=O)C(C)=C(C)C2=O)cc1	1.29	2.75
Cc1ccc(C2NC(=O)c3ccccc3N2)c(C)c1 (stereo unspecified)	6.4	> 100
O=C1/C(=C/c2ccc(O)cc2)COc2ccc(O)c(O)c21	1.99	5.69
COc1cc(Cl)cc(-c2nn(-c3cccc(NC(=O)Nc4ccc(Cl)c(Cl)c4)c3)cc2-c2ccncc2)c1	1.74	7.37
NC(CSSCC(N)C(=O)O)C(=O)O (stereo unspecified)	> 100	> 100
COc1cc2c(c(OC)c1OC)-c1ccc(N=NC(N)=S)c(=O)cc1[C@@H](NC(C)=O)CC2	0.301	
COc1ccc(CCN2CCC(CN(C)Cc3cnn(-c4ccccc4)c3)CC2)cc1	4.99	21.3
Cc1nc2sc(C(=O)c3ccc(Cl)cc3)c(N)c2c(-c2ccccc2Cl)c1C(=O)Nc1ccccc1	17.5	37
O=C1N(Cc2ccccc2Cl)c2ccccc2C12NN=C(c1cccc(Cl)c1)S2 (stereo unspecified)	1.91	3.77
COc1cnc2c(c1)C(=O)c1c-2n(CCCN2CCC(O)CC2)c(=O)c2cc(Cl)ccc12	0.521	10.8
Cc1nc2cc(Nc3nc(Nc4ccc(F)cc4)nc(N4CCOCC4)n3)ccc2n1Cc1ccccc1	1.52	4.28
CN(CCC(=O)/C(=C\c1ccccc1)c1ccc(Cl)cc1)Cc1ccccc1	2.14	5.96
CC(=O)/C=C/c1ccc(OCc2ccc(Cl)cc2)cc1	161	872
COCCOCCOCc1n(Cc2ccc3ccccc3n2)c2ccccc2[n+]1Cc1ccc2ccccc2n1	0.19	2.25
O=C(N/N=C/c1cccs1)c1[nH]c2ccc(Br)cc2c1-c1ccccc1	0.0881	4.26
COc1cc(C)c2sc3ccccc3c(=O)c2c1NCCN(C)C	2.15	5.06
Cc1cccc2c3c(sc12)C(c1ccc(F)cc1)C(C#N)=C(N)O3 (stereo unspecified)	0.0315	0.551

— PubChem BioAssay (NCI)
